# Data taken from article PMC10350924, “Design, Synthesis, and Pharmacological Characterization of a Potent Soluble Epoxide Hydrolase Inhibitor for the Treatment of Acute Pancreatitis” (Journal of Medicinal Chemistry, 2023).
# Tests used:
# [1] = test system: cerulein-induced acute pancreatitis; assay: Cerulein-induced acute pancreatitis in mice; format: in vivo; conditions: 10 mg/kg i.p. 0.5 and 2.5 h after first cerulein injection; 6 h
# Experimental: Male CD-1 mice (33–39 g, 8 weeks, Charles River Laboratories; Calco, Italy) were fed with standard rodent chow and water and acclimated for 4 days at a 12 h light and 12 h dark schedule in a constant air-conditioned environment (21 ± 2 °C). The mice were randomly assigned to groups, and experiments were carried out during the light phase. Experimental procedures were conducted in conformity with Italian (D.L. 26/2014) and European (directive 2010/63/EU) regulations on the protection of animals used for scientific purposes and approved by the Italian Ministry. Acute pancreatitis (AP) was induced in mice by intraperitoneal (i.p.) injections of cerulein (50 μg/kg) hourly (5 times).[56] The groups were: (a) Sham group which received saline i.p. hourly (×5); […] The mice were killed 6 h after the first cerulein injection. Blood samples were obtained by direct intracardiac puncture. Pancreases and lungs were removed immediately, frozen, and stored at −80 °C until assayed. Portions of these organs were also fixed in formaldehyde for histological and immunohistochemical examination. Pancreas and lung sections (6 μm) were stained for hematoxylin & eosin (H&E). Evaluation of pancreas edema and inflammation signs were performed with a three-point scoring system. […] Analysis was performed in a blinded manner. Evaluation of lung edema and inflammatory infiltration was performed with three-point scoring system: 0, absent; 1, mild; 2, moderate; 3, severe. […] Tissue sections were then incubated with normal goat serum (Vector Laboratories, Newark, California) for 20 min to reduce nonspecific antibody interactions. Sections were incubated with primary antibody diluted in 0.01 M PBS, 2.5% normal serum (anti-Neutrophils rat monoclonal antibody, dilution 1:100, Abcam) for 30 min. After rinsing with PBS 0.01 M for 5 min, slides were incubated with biotinylated goat anti-rat IgG (Vector Laboratories, Newark, California), diluted 1:200, for 30 min. After rinsing with PBS 0.01 M for 5 min, slides were incubated with VECTASTAIN ABC Reagent (Vector Laboratories, Newark, California) for 30 min. Color development was performed using […] 3,3′-diaminobenzidine solution (Sigma-Aldrich, Milan, Italy), and sections were analyzed using Leica Microsystem with a magnification of 20x. Semiquantitative determination of protein expression was obtained with ImageJ/Fiji software. Liver injury was assessed by measuring the rise in plasma levels of alanine aminotransferase (ALT, a specific marker for hepatic parenchymal injury) and aspartate aminotransferase (AST, a nonspecific marker for hepatic injury) 6 h after cerulein injection by a clinical laboratory. Results are expressed in international units per milliliter.
# [2] = test system: sEH; conditions: cited from earlier work
SMILES,"pancreatic injury (edema, cell infiltration, neutrophil numbers) [1]",sEH inhibitory potency in words (Figure 1) [2]
"O=C(O)CCCCCCCCCCCNC(=O)NC12CC3CC(CC(C3)C1)C2 [AUDA, reference compound]",reduced pancreatic injury,
O=C(Nc1ccc2c(c1)CCN2Cc1ccc(F)cc1)NC1CCCCC1 [Compound 53],,high sEH inhibitory potency
